Here are results for six compounds from ChEMBL document CHEMBL3407332, “An efficient synthesis of new caffeine-based chalcones, pyrazolines and pyrazolo[3,4-b][1,4]diazepines as potential antimalarial, antitrypanosomal and antileishmanial agents” (Eur J Med Chem, 2015).

The subject of data set [1] is Plasmodium falciparum. The data set can be described thus: Antimalarial activity against asynchronic culture of Plasmodium falciparum NF54 assessed as parasite growth inhibition at 20 ug/mL after 48 hrs by ethidium bromide staining-based spectrofluorometric analysis relative to control. The class given is functional. To be noted: NF54, 48 h, read-out: GI.
The nature of data set [2]: Cytotoxicity against human U937 cells assessed as cell viability after 72 hrs by MTT assay. The class given is cell-based, U-937. To be noted: read-out: LC50.
The subject of data set [3] is Leishmania panamensis. The data set can be described thus: Antileishmanial activity against amastigote stage of Leishmania panamensis MHOM/CO/87/UA140-EpiR-GFP infected in human U937 cells assessed as parasite growth inhibition after 72 hrs by flow cytometric analysis. Format: functional, organism-based. To be noted: MHOM/CO/87/UA140, U-937, 72 h.
Data set [4] has as its system Leishmania panamensis. As to the kind of experiment: Antileishmanial activity against amastigote stage of Leishmania panamensis MHOM/CO/87/UA140-EpiR-GFP infected in human U937 cells assessed as parasite growth inhibition at 5 ug/mL after 72 hrs by flow cytometric analysis relative to control. The note with it: MHOM/CO/87/UA140, U-937, 72 h, read-out: GI. Format: functional.

Data set [5] concerns Trypanosoma cruzi. As to the kind of experiment: Antitrypanosomal activity against amastigote stage of Trypanosoma cruzi Tulahuen infected in human U937 cells assessed as parasite growth inhibition at 1 ug/mL after 72 hrs by beta-galactosidase reporter gene assay relative to control. The note with it: U-937, 72 h, read-out: GI. Format: functional.
The test system of data set [6] is Trypanosoma cruzi. As to the kind of experiment: Antitrypanosomal activity against amastigote stage of Trypanosoma cruzi Tulahuen infected in human U937 cells assessed as parasite growth inhibition after 72 hrs by beta-galactosidase reporter gene assay. Format: functional, organism-based. The note with it: U-937, 72 h.
A short description of data set [7]: Hemolytic activity in human RBC after 48 hrs by spectrophotometric analysis. The class given is ADME, cell-based, Erythrocyte. The note with it: human red blood cells (RBC), read-out: LC50.
Data set [8] concerns Plasmodium falciparum. As to the kind of experiment: Antimalarial activity against asynchronic culture of Plasmodium falciparum NF54 assessed as parasite growth inhibition after 48 hrs by ethidium bromide staining-based spectrofluorometric analysis. The class given is functional, organism-based. To be noted: NF54, 48 h.
For data set [9], the system named is Leishmania panamensis. As to the kind of experiment: Antileishmanial activity against amastigote stage of Leishmania panamensis MHOM/CO/87/UA140-EpiR-GFP infected in human U937 cells assessed as parasite growth inhibition at 20 ug/mL after 72 hrs by flow cytometric analysis relative to control. Format: functional. The note with it: MHOM/CO/87/UA140, U-937, 72 h, read-out: GI.

Data set [10] relates to Trypanosoma cruzi. The data set can be described thus: Antitrypanosomal activity against amastigote stage of Trypanosoma cruzi Tulahuen infected in human U937 cells assessed as parasite growth inhibition at 20 ug/mL after 72 hrs by beta-galactosidase reporter gene assay relative to control. The class given is functional. To be noted: U-937, 72 h, read-out: GI.

Values after ≈ are worked out from the molar mass of the structure shown.

As for `COc1cc(/C=C/C(=O)c2cc(OC)c(OC)c(OC)c2)ccc1Oc1nc2c(c(=O)n(C)c(=O)n2C)n1C`, in the data set with Plasmodium falciparum [1], the inhibition of growth at 20 µg/mL was 6.4%. Further, in data set [2], the CC50 at 72 h worked out at 3.2 µg/mL (≈ 5.96 µM). Besides, the EC50 with Leishmania panamensis [3] stood at 2.6 µg/mL (≈ 4.85 µM); with Trypanosoma cruzi [6], 5.9 µg/mL (≈ 11 µM). In addition, in the data set with Leishmania panamensis [4], the inhibition of growth at 5 µg/mL amounted to 48.8%. Besides, the inhibition of growth at 1 µg/mL in the data set on Trypanosoma cruzi [5] stood at 9.7%.
Turning to `COc1cc(C2CC(c3cc(OC)c(OC)c(OC)c3)=Nc3c(C)nn(-c4ccccc4)c3N2)ccc1Oc1nc2c(c(=O)n(C)c(=O)n2C)n1C` (centres undefined), in data set [7], the HC50 at 48 h is > 200 µg/mL. Besides, the IC50 in the data set on Plasmodium falciparum [8] was found to be 11.3 µg/mL (≈ 16 µM). In addition, the figures for the inhibition of growth at 20 µg/mL with Plasmodium falciparum [1], in the data set with Leishmania panamensis [9] and in the data set on Trypanosoma cruzi [10] were 94.2%, 0% and 56.6%, respectively. For the same compound, the CC50 at 72 h in data set [2] is > 200 µg/mL. In the data set with Trypanosoma cruzi [6], the half-maximal effective concentration (EC50) is 20.3 µg/mL (≈ 28.7 µM).
Regarding `O=C(Cn1ccnc1[N+](=O)[O-])NCc1ccccc1` [BENZNIDAZOLE], the CC50 at 72 h in [2] turned out to be 180 µg/mL (≈ 692 µM). Further, the inhibition of growth at 20 µg/mL with Trypanosoma cruzi [10] came to 100%. The half-maximal effective concentration (EC50) with Trypanosoma cruzi [6] was 10.7 µg/mL (≈ 41.1 µM).
For `COc1cc(C2CC(c3ccccc3)=NN2)ccc1Oc1nc2c(c(=O)n(C)c(=O)n2C)n1C` (centres undefined), the HC50 at 48 h in [7] was > 200 µg/mL. The IC50 in the data set on Plasmodium falciparum [8] is 13.7 µg/mL (≈ 29.8 µM). The inhibition of growth at 20 µg/mL in the data set on Plasmodium falciparum [1] was 85.2%. Besides, the CC50 at 72 h in data set [2] was 19.8 µg/mL (≈ 43 µM). For the same compound, the inhibition of growth at 5 µg/mL in the data set with Leishmania panamensis [4] amounted to 0%. The inhibition of growth at 1 µg/mL in the data set on Trypanosoma cruzi [5] was determined as 0%.
Turning to `COc1cc(C2CC(c3ccc(C)cc3)=NN2)ccc1Oc1nc2c(c(=O)n(C)c(=O)n2C)n1C` (centres undefined), the results for the inhibition of growth at 20 µg/mL with Plasmodium falciparum [1], in the data set on Leishmania panamensis [9] and with Trypanosoma cruzi [10] were 46.1%, 0% and 61.9%, respectively. Besides, the CC50 at 72 h in [2] turned out to be 53.2 µg/mL (≈ 112 µM). Moreover, the EC50 with Trypanosoma cruzi [6] is 19.4 µg/mL (≈ 40.9 µM).
Turning to `COc1cc(/C=C/C(=O)c2ccc(C)cc2)ccc1Oc1nc2c(c(=O)n(C)c(=O)n2C)n1C`, in data set [7], the HC50 at 48 h is > 200 µg/mL. Besides, the IC50 with Plasmodium falciparum [8] was 21.4 µg/mL (≈ 46.5 µM). Further, the inhibition of growth at 20 µg/mL with Plasmodium falciparum [1] was 54.3%. Moreover, the CC50 at 72 h in [2] is 27.5 µg/mL (≈ 59.7 µM). Also, the half-maximal effective concentration (EC50) with Leishmania panamensis [3] is 2.6 µg/mL (≈ 5.65 µM). Further, the inhibition of growth at 5 µg/mL in the data set with Leishmania panamensis [4] came out at 21.8%. Besides, in the data set on Trypanosoma cruzi [5], the inhibition of growth at 1 µg/mL is 0%.
